BigSolDB 2.1

N#CN=C(N)N
solubility (mole fraction)
Settings | 283.15 K | 288.15 K | 293.15 K | 298.15 K | 303.15 K | 308.15 K | 313.15 K | 318.15 K | 323.15 K
in acetone | 0.00634 | 0.00658 | 0.00677 | 0.00754 | 0.00836 | 0.0102 | 0.0112 | 0.0133 | 0.0154
in acetonitrile | 0.00219 | 0.00226 | 0.00245 | 0.00273 | 0.00296 | 0.00324 | 0.00364 | 0.00447 | 0.00528
in ethanol | 0.00786 | 0.00861 | 0.00936 | 0.0102 | 0.0109 | 0.0125 | 0.0142 | 0.017 | 0.0206
